Results published in article PMC5065625, “Structure-mechanism-based engineering of chemical regulators targeting distinct pathological factors in Alzheimer's disease” (Nature Communications, 2016).

How the values were obtained:
[1] = system: human neuroblastoma SK-N-BE(2)-M17 (M17) cells; test: Cell viability (MTT assay), compounds with and without metal ions; format: cell-based; conditions: with and without Cu(II) and Zn(II), up to 20 μM
Method: The M17 cell line was purchased from the American Type Culture Collection (ATCC, Manassas, VA, USA). The cell line was maintained in media containing 50% minimum essential medium and 50% F12 (GIBCO, Grand Island, NY, USA), supplemented with 10% fetal bovine serum (Sigma), 100 U ml^−1 penicillin, and […] streptomycin (GIBCO). The cells were grown and maintained at 37 °C in a humidified atmosphere with 5% CO2. […] Cell viability upon treatment of compounds was determined using the MTT assay (Sigma). M17 cells were seeded in a 96-well plate (15,000 cells in 100 μl per well). The cells were treated with Aβ (20 μM) with or without CuCl2 or ZnCl2 (20 μM), followed by the addition of compounds (20 μM, 1% v/v final DMSO concentration), and incubated for 24 h. After incubation, 25 μl MTT (5 mg ml^−1 in phosphate buffered saline (PBS, pH 7.4, GIBCO) was added to each well and the plate was incubated for 4 h at 37 °C. Formazan produced by the cells was solubilized using an acidic solution of N,N-dimethylformamide (DMF, 50%, v/v aq) and SDS (20%, w/v) overnight at room temperature in the dark. The absorbance was measured at 600 nm using a microplate reader. Cell viability was calculated relative to cells containing an equivalent amount of DMSO.

[2] = Stability in solution (UV–vis, ESI–MS) in the presence of Cu(II); format: physicochemical; conditions: Cu 25 μM; for half-life at 50 μM: HEPES buffer with CuCl2, pH 7.4, compound 50 μM, read-out: t1/2, + Cu(II); for half-life at 50 μM / k, + Cu(II) (rate of decay of the absorbance peak) / t1/2, + Cu(II): HEPES pH 7.4, 37 °C
Method: The stability of 1–4 (50 μM) in the absence and presence of CuCl2 (25 μM) was monitored every 10 min using UV–vis for 5 h in buffer ([…], pH 7.4, […]; 1% DMSO) at 37 °C. The resulting spectra were corrected for baseline shifts at 800 nm and the half-life and rate of decay of the absorbance at 250, 385 and 400 nm for 4, [Cu(II)+1], and [Cu(II)+3], respectively, was calculated using the first-order exponential decay function as implemented in Origin 9.1 (OrginLab Corp., Northampton, MA, USA). Additionally, the species present were identified using ESI–MS. Samples containing 1–4 (50 μM) with or without CuCl2 (25 μM) were incubated in ddH2O (1% DMSO) at 37 °C for the selected time points before being freshly frozen using liquid nitrogen and stored at −80 °C until they were thawed immediately before measurement.

Cu(II)–Aβ40/Aβ42 = test: Aβ aggregation inhibition/disaggregation experiments (gel/western blot, TEM), Cu(II); format: biochemical; conditions: Aβ 25 μM, compound 50 μM, 37 °C, 24 h; gel/western blot and TEM
Method: (§1) The ability of 1–4 to control the aggregation of both metal-free Aβ and metal-Aβ in inhibition (Fig. 2) and disaggregation experiments (Supplementary Fig. 1) was evaluated using the two major Aβ isoforms (Aβ40/Aβ42)[1][2][3][6][16] found in the AD-affected brain. Molecular weight (MW) distributions and morphologies of the resulting Aβ species were determined by gel electrophoresis followed by western blotting (gel/western blot) and transmission electron microscopy (TEM). Generally, under the experimental conditions employed herein, compound-free Aβ samples with and without metal ions assemble into a distribution of large aggregates that are too big to penetrate into the gel matrix, which yields very little smearing in the gel/western blots, but they can be visualized by TEM. The administration of compounds, able to interact with Aβ, inhibit the formation of high MW aggregates, and/or disassemble preformed aggregates, typically generates smaller-sized Aβ species that can enter into the gel and produce a substantial amount of streaking compared with the samples containing Aβ only.
Before experiments, Aβ40 or Aβ42 was dissolved in ammonium hydroxide (NH4OH; 1% v/v, aq). The resulting solution was aliquoted, lyophilized overnight and stored at −80 °C. A stock solution of Aβ was then prepared by dissolving lyophilized peptide in 1% NH4OH (10 μl) and diluting with ddH2O. The concentration of the solution was determined by measuring the absorbance of the solution at 280 nm (ɛ=1,450 M^–1 cm^–1 for Aβ40; ɛ=1,490 M^–1 cm^–1 for Aβ42). The peptide stock solution was diluted to a final concentration of 25 μM in Chelex-treated buffered solution containing HEPES ([…]; pH 6.6 for Cu(II) samples; pH 7.4 for metal-free and Zn(II) samples) and NaCl ([…]). For the inhibition studies, compounds (final concentration 50 μM, 1% v/v dimethyl sulfoxide (DMSO)) were added to the sample of Aβ (25 μM) in the absence and presence of a metal chloride salt (CuCl2 or ZnCl2; 25, 50, 100 or 125 μM) followed by incubation at 37 °C with constant agitation for 24 h. For the disaggregation studies, Aβ with and without a metal chloride salt was incubated for 24 h at 37 °C with constant agitation to generate preformed Aβ aggregates. The resulting samples were then treated with compounds (50 μM) and incubated with constant agitation for additional 24 h.
The Aβ samples from in vivo or in vitro experiments were analysed by gel electrophoresis followed by western blotting using an anti-Aβ antibody (6E10)[24][25][27][28][29]. Samples (10 μl) were separated on a 10–20% Tris-tricine gel (Invitrogen, Grand Island, NY, USA). […]

Zn(II)–Aβ40/Aβ42 = test: Aβ aggregation inhibition/disaggregation experiments (gel/western blot, TEM), Zn(II); format: biochemical; conditions: Aβ 25 μM, compound 50 μM, 37 °C, 24 h; gel/western blot and TEM
Method: as §1
Before experiments, Aβ40 or Aβ42 was dissolved in ammonium hydroxide (NH4OH; 1% v/v, aq). The resulting solution was aliquoted, lyophilized overnight and stored at −80 °C. A stock solution of Aβ was then prepared by dissolving lyophilized peptide in 1% NH4OH (10 μl) and diluting with ddH2O. The concentration of the solution was determined by measuring the absorbance of the solution at 280 nm (ɛ=1,450 M^–1 cm^–1 for Aβ40; ɛ=1,490 M^–1 cm^–1 for Aβ42). The peptide stock solution was diluted to a final concentration of 25 μM in Chelex-treated buffered solution containing HEPES ([…]; pH 6.6 for Cu(II) samples; pH 7.4 for metal-free and Zn(II) samples) and NaCl (150 μM). […]
The Aβ samples from in vivo or in vitro experiments were analysed by gel electrophoresis followed by western blotting using an anti-Aβ antibody (6E10)[24][25][27][28][29]. […]

half-life at 50 μM [2] | Structure (SMILES) | Toxicity in M17 cells [1] | k, + Cu(II) (rate of decay of the absorbance peak) ([2]; compound 50 μM) | t1/2, + Cu(II) ([2]; compound 50 μM) | Modulation of Cu(II)-induced Aβ aggregation (Cu(II)–Aβ40/Aβ42) | Modulation of Zn(II)-induced Aβ aggregation (Zn(II)–Aβ40/Aβ42) | Stability of the complex with Cu(II) ([2]; compound 50 μM, 5 h)
 | COc1cc(NCc2ccccn2)cc(OC)c1 [compound 2, 3,5-dimethoxy-N-(pyridin-2-ylmethyl)aniline] | nontoxic | too slow to accurately measure the rate | No noticeable spectral changes were observed over 5 h | modulating activity at higher Cu(II) concentrations |  | without any further transformations over the course of 5 h
53 ± 3 min | CN(C)c1ccc(NCc2ccc3ccccc3n2)cc1 [compound 3, N^1,N^1-dimethyl-N^4-(quinolin-2-ylmethyl)benzene-1,4-diamine] |  | 0.013 ± 0.001 min⁻¹ | ~50 min | modulates Aβ aggregation involved by both Cu(II) and Zn(II) | modulates Aβ aggregation involved by both Cu(II) and Zn(II) | 
< 1 min | CN(C)c1ccc(NCc2ccc[nH]2)cc1 [compound 4, N^1-((1H-pyrrol-2-yl)methyl)-N^4,N^4-dimethylbenzene-1,4-diamine] |  | too rapidly to measure |  | redirect both Cu(II)- and Zn(II)-induced Aβ aggregation | redirect both Cu(II)- and Zn(II)-induced Aβ aggregation | 

Structure (SMILES) | half-life at 50 μM [2] | Toxicity in M17 cells [1] | k, + Cu(II) (rate of decay of the absorbance peak) ([2]; compound 50 μM) | t1/2, + Cu(II) ([2]; compound 50 μM) | Modulation of Cu(II)-induced Aβ aggregation (Cu(II)–Aβ40/Aβ42) | Modulation of Zn(II)-induced Aβ aggregation (Zn(II)–Aβ40/Aβ42) | Stability of the complex with Cu(II) ([2]; compound 50 μM, 5 h)
Nc1ccc(NCc2ccccn2)cc1 [compound 1, N^1-(pyridin-2-ylmethyl)benzene-1,4-diamine] | 8 ± 3 min | nontoxic | 0.09 ± 0.03 min⁻¹ | ~5 min | redirect Cu(II)-promoted Aβ40 and Aβ42 aggregation | did not show any noticeable activity | 
